Earlier results, collected in US20060165788A1, “Lercanidipine pH dependent pulsatile release compositions” (priority 2004, published 2006).

Tests used:
[1] = for time to maximum concentration (Tmax): form (I) and form (II) compared with each other
Caco-2 cell = Caco-2 cell apparatus
[2] = not given; remark: listed apart in the source

COC(=O)C1=C(C)NC(C)=C(C(=O)OC(C)(C)CN(C)CCC(c2ccccc2)c2ccccc2)C1c1cccc([N+](=O)[O-])c1 (stereo not drawn) [form (II)]
time to maximum concentration (Tmax) [1]: delayed time of maximum concentration
bioavailability ([1]; form (II) compared to Form (I)): higher bioavailability
plasma concentration (AUCo-t) ([1]; form (II) compared to Form (I)): higher plasma concentration

COC(=O)C1=C(C)NC(C)=C(C(=O)OC(C)(C)CN(C)CCC(c2ccccc2)c2ccccc2)C1c1cccc([N+](=O)[O-])c1.Cl (stereo not drawn) [Lercanidipine, methyl 1,1,N-trimethyl-N-(3,3-diphenylpropyl)-2-aminoethyl 1,4-dihydro-2,6-dimethyl-4-(3-nitrophenyl)pyridine-3,5-dicarboxylate]
permeability, Paap (Caco-2 cell): 0.05 ×10⁻⁶ cm/s
solubility at pH 5: less than 20 μg/ml
increase of amount of lercanidipine absorbed with simultaneous intake of food ([2]; in vivo): between three and four times
presystemic first pass elimination ([2]; in vivo): extensive
peak plasma level Tmax ([2]; oral administration, immediate release form): 1 to 3 h

COC(=O)C1=C(C)NC(C)=C(C(=O)OC(C)(C)CN(C)CCC(c2ccccc2)c2ccccc2)C1c1cccc([N+](=O)[O-])c1 (stereo not drawn) [form (I)]
time to maximum concentration (Tmax) [1]: shorter time to maximum concentration
